According to patent publication US20080319038A1, “PREVENTATIVE OR THERAPEUTIC AGENT FOR ACUTE RENAL FAILURE” (priority 2005, published 2008):

What was measured:
[1] = test system: ischemia reperfusion mice; test: Effect of Fidarestat administration on renal damage in ischemia reperfusion mice; assay type: in vivo, C57BL/6 mice; details: for BUN / CK / Creatinine: blood, 3 h ischemia, 24 h reperfusion, Average ± SEM, n = 4
Protocol: Sixteen- to twenty-week-old male C57BL/6 mice (Wild) were used in the experiment. The mice were divided into 4 groups, which were designated as sham-operation group (normal control group), ischemia operation group (ischemia reperfusion control group), ischemia operation+Fidarestat 40 mg/kg administration group (ischemia reperfusion/Fidarestat 40 mg/kg administration group), and ischemia operation+Fidarestat 150 mg/kg administration group (ischemia reperfusion/Fidarestat 150 mg/kg administration group), respectively. 40 or 150 mg/kg/day of Fidarestat was mixed in their diet and administered to the ischemia operation+Fidarestat administration groups 7 days before ischemia operation. Plantar blood flow in these mice was measured with a laser blood flow meter under isoflurane anesthesia, and then the abdomen was incised. The abdominal aorta was exposed under a stereoscopic microscope and clipping was carried out at the portion distal to the renal artery bifurcation. Further, the right common iliac artery was also clipped and the right femoral artery was finally clipped. Thereafter, the abdomen was closed. The time of ischemia onset was set to the time when the femoral artery was clipped. From the time of ischemia onset, plantar blood flow was measured with a laser blood flow meter and the ischemia was confirmed. The clipping was released in order of the right femoral artery, right common iliac artery, and abdominal aorta in 3 hours from the ischemia onset and reperfusion was performed. At the time, the reperfusion status was confirmed with the laser blood flow meter. The reperfusion time was set to the time when the clipping of the aorta was released. The reperfusion was performed for 24 hours and the general condition was observed. Thereafter, heart blood was collected from the right atrium under isoflurane anesthesia. The collected heart blood was mixed with heparin and centrifuged at 3000 g. Then, the supernatant was collected therefrom, which was frozen for preservation at −80 degrees C. to use in a serologic test for CK, BUN, creatinine, and the like.

[2] = test system: mice with LPS-induced inflammation; test: Effect of Fidarestat administration on renal damage in mice with lipopolysaccharide (LPS)-induced inflammation; assay type: in vivo, CD-1 mice
Protocol: Eight-week-old male CD-1 mice were used in the experiment. The mice were divided into 3 groups of normal control group (drug and LPS non-administration group), LPS control group (drug non-administration/LPS administration group), and LPS/Fidarestat administration group (Fidarestat and LPS administration group). First, 10 mg/kg of Fidarestat (which was prepared with a solubilizing agent solution) was administered into the caudal vein of the Fidarestat administration group and the solubilizing agent solution was administered into the caudal vein of the drug non-administration group. After 5 minutes, Lipopolysaccharides (LPS: Escherichia coli; 0111: B4, Sigma) was prepared with a physiological salt solution, which was administered to the LPS administration group intraperitoneally at a concentration of 2 mg/kg and a physiological salt solution was administered to the LPS non-administration group intraperitoneally. After 24 hours, each of the groups of mice was anesthetized by ether inhalation and blood was collected from the abdominal vein using a heparinized syringe. Then, centrifugation was carried out under the following conditions: at 4 degree C., at 1,000×g, for 10 min. Plasma was then obtained. Blood urea nitrogen (BUN) and creatinine were measured using an autoanalyzer (Hitachi). In this regard, as a solubilizing agent, NMDG (N-methyl-D-glucamine) was used.

[3] = Fidarestat 40 mg/kg/day in diet from 7 days before ischemia
[4] = Fidarestat 150 mg/kg/day in diet from 7 days before ischemia
[5] = plasma, Fidarestat 10 mg/kg caudal vein 5 min before LPS 2 mg/kg i.p., 24 hours after LPS, Average ± SEM, n = 7

NC(=O)[C@@H]1C[C@]2(NC(=O)NC2=O)c2cc(F)ccc2O1 [Fidarestat, (2S,4S)-6-fluoro-2′,5′-dioxospiro[chroman-4,4′-imidazolidine]-2-carboxamide]
BUN [1, 3]: 40 ± 11 mg/dL
CK [1, 3]: 6978 ± 4904 IU/L
Creatinine [1, 3]: 0.12 ± 0.01 mg/dL
BUN [1, 4]: 31 ± 1 mg/dL
CK [1, 4]: 2348 ± 530 IU/L
Creatinine [1, 4]: 0.10 ± 0.01 mg/dL
onset of acute renal failure ([1]; ischemia reperfusion/Fidarestat 40 mg/kg and 150 mg/kg administration groups): completely suppressed
effect on renal function impairment ([2]; model with LPS-induced inflammation, Fidarestat 10 mg/kg i.v.): effective
BUN [2, 5]: 24.3 ± 2.2 mg/dL
Creatinine [2, 5]: 0.067 ± 0.003 mg/dL
